These are literature values, as cited in patent US9045248B2 (priority 2007, dated 2015).

The IC50 is the concentration that inhibits the measured activity by half.

This data set addresses influenza virus RNP (Influenza A virus, UniProt P03428). The following applies: cited from earlier work.

Sequence of influenza virus RNP (P03428 whole entry, looked up): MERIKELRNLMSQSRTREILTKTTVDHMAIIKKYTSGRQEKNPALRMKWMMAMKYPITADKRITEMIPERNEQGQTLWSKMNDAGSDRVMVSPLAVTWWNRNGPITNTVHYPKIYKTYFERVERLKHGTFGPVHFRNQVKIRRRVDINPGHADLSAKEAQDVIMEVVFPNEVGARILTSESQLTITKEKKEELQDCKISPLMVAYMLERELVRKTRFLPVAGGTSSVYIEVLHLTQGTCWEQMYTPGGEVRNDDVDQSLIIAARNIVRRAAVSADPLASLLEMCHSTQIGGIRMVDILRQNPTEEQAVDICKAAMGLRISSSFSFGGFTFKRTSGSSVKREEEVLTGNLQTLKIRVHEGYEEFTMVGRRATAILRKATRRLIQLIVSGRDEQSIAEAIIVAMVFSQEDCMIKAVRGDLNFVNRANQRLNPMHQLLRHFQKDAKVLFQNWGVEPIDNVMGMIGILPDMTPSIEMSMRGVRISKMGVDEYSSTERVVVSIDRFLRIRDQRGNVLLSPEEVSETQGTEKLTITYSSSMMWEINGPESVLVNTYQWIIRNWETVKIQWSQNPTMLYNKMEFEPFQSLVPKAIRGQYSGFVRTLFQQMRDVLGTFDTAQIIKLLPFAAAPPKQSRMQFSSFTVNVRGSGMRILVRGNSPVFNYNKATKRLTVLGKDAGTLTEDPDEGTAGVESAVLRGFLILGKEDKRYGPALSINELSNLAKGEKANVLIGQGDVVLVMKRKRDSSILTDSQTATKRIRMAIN

For the molecule `Nc1nc2c(ncn2[C@@H]2O[C@H](COP(=O)(O)OP(=O)(O)OP(=O)(O)O)[C@@H](O)[C@H]2O)c(=O)[nH]1` [GTP], the IC50 is 550 µM.

In the case of `C[n+]1cn([C@@H]2O[C@H](COP(=O)(O)OP(=O)(O)OP(=O)(O)O)[C@@H](O)[C@H]2O)c2nc(N)[nH]c(=O)c21` [m^7GTP, 7-methyl-guanosine triphosphate], the 50% inhibitory concentration (IC50) is 113 µM.
